The target in one experiment is Cathepsin D (Cat D) (Homo sapiens (Human), UniProt P07339). Nature of the experiment: In vitro enzymatic Cathepsin D (Cat D) FRET assay. The format is biochemical. The note with it: read-out: CatD IC50.
The target in experiment [1] is Beta Secretase enzyme (BACE) (Homo sapiens (Human), UniProt P56817). As to the kind of experiment: In vitro enzymatic BACE FRET assay. The following applies: read-out: BACE1 Enzyme assay IC50. The format is biochemical.
The next experiment deals with BACE (Homo sapiens (Human), UniProt P56817). As to the kind of experiment: In vitro BACE cell-based assay (Aβ40 in conditioned medium, sandwich ELISA). For orientation: ELISA stands for enzyme-linked immunosorbent assay.
BACE, sequence (P56817 46-501, species assumed): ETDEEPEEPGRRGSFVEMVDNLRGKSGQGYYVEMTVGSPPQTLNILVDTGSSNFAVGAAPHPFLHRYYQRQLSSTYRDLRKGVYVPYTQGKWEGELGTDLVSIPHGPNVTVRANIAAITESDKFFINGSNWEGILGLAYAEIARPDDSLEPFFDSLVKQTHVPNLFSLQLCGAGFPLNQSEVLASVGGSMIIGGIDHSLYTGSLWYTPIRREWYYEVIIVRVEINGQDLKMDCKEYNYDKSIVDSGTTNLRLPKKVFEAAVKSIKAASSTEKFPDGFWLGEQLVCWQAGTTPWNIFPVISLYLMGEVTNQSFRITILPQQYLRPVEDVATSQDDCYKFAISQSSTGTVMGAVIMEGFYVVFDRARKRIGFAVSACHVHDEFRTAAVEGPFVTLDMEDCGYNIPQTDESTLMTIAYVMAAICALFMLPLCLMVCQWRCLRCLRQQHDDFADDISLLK

Molecules are shown by their SMILES.

Cathepsin D (Cat D), sequence (P07339 65-412, species assumed): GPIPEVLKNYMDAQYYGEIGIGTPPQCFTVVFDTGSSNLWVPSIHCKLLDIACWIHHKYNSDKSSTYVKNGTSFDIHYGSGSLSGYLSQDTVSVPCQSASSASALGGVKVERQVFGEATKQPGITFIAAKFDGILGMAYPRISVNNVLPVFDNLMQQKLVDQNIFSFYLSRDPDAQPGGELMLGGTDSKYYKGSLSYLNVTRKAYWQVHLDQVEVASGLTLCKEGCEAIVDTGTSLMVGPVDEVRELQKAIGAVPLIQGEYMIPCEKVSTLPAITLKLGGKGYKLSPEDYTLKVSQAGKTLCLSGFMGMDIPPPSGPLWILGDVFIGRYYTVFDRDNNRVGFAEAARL
Beta Secretase enzyme (BACE), sequence (P56817 46-501): as the sequence (P56817 46-501, species assumed) above
Description for Cathepsin D (Cat D): In Vitro Enzymatic Cathepsin D (Cat D) FRET (Fluorescence Resonance Energy Transfer) Assay
Recombinant Cat D was expressed in CHO cells. The assay buffer for CathepsinD is 0.05 M citrate pH 3.5, 10% DMSO final, 5 mM CHAPS. […] The assays are effectively started by the addition of different FRET substrates (20 nM for Cat D) and the combination is incubated for one hour. The FRET assay is terminated with by addition of Tris buffer, which raises the pH to neutrality, and the fluorescence is determined. […] Proteolytic cleavage of the FRET substrate releases quenching of fluorescence (Cat D excitation 500 nm and emission 580 nm).

The IC50 is the concentration that gives 50% inhibition. For `NC1=N[C@@](c2cc(NC(=O)c3nn(C(F)F)cc3Cl)cc(F)c2F)(C(F)F)[C@H]2C[C@H]2O1` [Example 114, N-(3-((1R,5S,6R)-3-amino-5-(difluoromethyl)-2-oxa-4-azabicyclo[4.1.0]hept-3-en-5-yl)-4,5-difluorophenyl)-4-chloro-1-(difluoromethyl)-1H-pyrazole-3-carboxamide], the results for the IC50 (at Cathepsin D (Cat D); in experiment [1]; on BACE) were 158 µM, 0.0098 µM and 0.0198 µM, respectively.

`NC1=N[C@@](CF)(c2cc(NC(=O)c3ccc(Cl)cn3)ccc2F)[C@@H]2C[C@@H]2O1` [Example 118, N-(3-((1S,5R,6S)-3-amino-5-(fluoromethyl)-2-oxa-4-azabicyclo[4.1.0]hept-3-en-5-yl)-4-fluorophenyl)-5-chloropicolinamide]: the IC50 on Cathepsin D (Cat D) was determined as 1280 µM; in experiment [1] it was 1.56 µM; at BACE, 0.221 µM.

Turning to `NC1=N[C@@](c2cc(NC(=O)c3ncc(Cl)cn3)ccc2F)(C(F)F)[C@H]2C[C@H]2O1` [Example 119, N-(3-((1R,5S,6R)-3-amino-5-(difluoromethyl)-2-oxa-4-azabicyclo[4.1.0]hept-3-en-5-yl)-4-fluorophenyl)-5-chloropyrimidine-2-carboxamide], the IC50 on Cathepsin D (Cat D) came to 2990 µM; in experiment [1], 0.0559 µM; against BACE, 0.0524 µM.

Consider `Cc1nc(OCC(F)(F)F)cnc1C(=O)Nc1ccc(F)c([C@@]2(C(F)F)N=C(N)O[C@@H]3C[C@@H]32)c1` [Example 120, N-(3-((1R,5S,6R)-3-amino-5-(difluoromethyl)-2-oxa-4-azabicyclo[4.1.0]hept-3-en-5-yl)-4-fluorphenyl)-3-methyl-5-(2,2,2-trifluoroethoxy)pyrazine-2-carboxamide], for which the figures for the IC50 (on Cathepsin D (Cat D); in experiment [1]; at BACE) were 351 µM, 0.05 µM and 0.247 µM, respectively.

With `Cc1cc(C(F)F)cnc1C(=O)Nc1ccc(Cl)c([C@@]2(CF)N=C(N)O[C@@H]3C[C@@H]32)c1` [Example 122, N-(3-((1R,5S,6R)-3-amino-5-(fluoromethyl)-2-oxa-4-azabicyclo[4.1.0]hept-3-en-5-yl)-4-chlorophenyl)-5-(difluoromethyl)-3-methylpicolinamide], the IC50 was 1070 µM on Cathepsin D (Cat D), 0.099 µM in experiment [1] and 0.0148 µM against BACE.

For `Cc1cc(C(F)(F)F)cnc1C(=O)Nc1ccc(Cl)c([C@@]2(CF)N=C(N)O[C@@H]3C[C@@H]32)c1` [Example 125, N-(3-((1R,5S,6R)-3-amino-5-(fluoromethyl)-2-oxa-4-azabicyclo[4.1.0]hept-3-en-5-yl)-4-chlorophenyl)-3-methyl-5-(trifluoromethyl) picolinamide], the IC50 was above 400 µM on Cathepsin D (Cat D), 0.0806 µM in experiment [1] and 0.0086 µM at BACE.

For `Cc1cc(OC(F)F)cnc1C(=O)Nc1ccc(Cl)c([C@@]2(CF)N=C(N)O[C@@H]3C[C@@H]32)c1` [Example 126, N-(3-((1R,5S,6R)-3-amino-5-(fluoromethyl)-2-oxa-4-azabicyclo[4.1.0]hept-3-en-5-yl)-4-chlorophenyl)-5-(difluoromethoxy)-3-methylpicolinamide], the IC50 at Cathepsin D (Cat D) worked out at 1200 µM; in experiment [1] it was 0.0835 µM; against BACE, 0.0146 µM.

With `COCc1cc(Cl)cnc1C(=O)Nc1ccc(Cl)c([C@@]2(CF)N=C(N)O[C@@H]3C[C@@H]32)c1` [Example 128, N-(3-((1R,5S,6R)-3-amino-5-(fluoromethyl)-2-oxa-4-azabicyclo[4.1.0]hept-3-en-5-yl)-4-chlorophenyl)-5-chloro-3-(methoxymethyl) picolinamide], the IC50 is 1000 µM at Cathepsin D (Cat D), 0.0508 µM in experiment [1] and 0.0161 µM at BACE.

Take `NC1=N[C@@](c2cc(NC(=O)c3ncc(Cl)cc3F)ccc2F)(C(F)F)[C@H]2C[C@H]2O1` [Example 129]: the IC50 on Cathepsin D (Cat D) worked out at 1280 µM; in experiment [1], 0.0389 µM; on BACE it was 0.0403 µM.

For `COc1cnc(C(=O)Nc2ccc(F)c([C@@]3(C(F)F)N=C(N)O[C@@H]4C[C@@H]43)c2)c(C)c1` [Example 131, N-(3-((1R,5S,6R)-3-amino-5-(difluoromethyl)-2-oxa-4-azabicyclo[4.1.0]hept-3-en-5-yl)-4-fluorophenyl)-5-methoxy-3-methylpicolinamide], the IC50 on Cathepsin D (Cat D) worked out at 342 µM; in experiment [1], 0.185 µM; at BACE, 0.0809 µM.

`Cc1cc(NC(=O)c2ncc(C#N)cc2Cl)cc([C@@]2(C(F)F)N=C(N)O[C@@H]3C[C@@H]32)c1F` [Example 133]: the IC50 at Cathepsin D (Cat D) was found to be 558 µM; in experiment [1], 0.023 µM; at BACE, 0.0158 µM.

As to `COc1cc(Cl)cnc1C(=O)Nc1cc(C)c(F)c([C@@]2(C(F)F)N=C(N)O[C@@H]3C[C@@H]32)c1` [Example 134, N-(3-((1R,5S,6R)-3-amino-5-(difluoromethyl)-2-oxa-4-azabicyclo[4.1.0]hept-3-en-5-yl)-4-fluoro-5-methylphenyl)-5-chloro-3-methoxypicolinamide], the IC50 at Cathepsin D (Cat D) came to 1110 µM; in experiment [1], 0.131 µM; against BACE, 0.0604 µM.

Take `Cc1cc(NC(=O)c2ncc(Cl)cc2Cl)cc([C@@]2(C(F)F)N=C(N)O[C@@H]3C[C@@H]32)c1F` [Example 135, N-(3-((1R,5S,6R)-3-amino-5-(difluoromethyl)-2-oxa-4-azabicyclo[4.1.0]hept-3-en-5-yl)-4-fluoro-5-methylphenyl)-3,5-dichloropicolinamide]: the IC50 on Cathepsin D (Cat D) worked out at 494 µM; in experiment [1] it was 0.0256 µM; against BACE it was 0.0199 µM.

Regarding `Cc1cc(C#N)cnc1C(=O)Nc1cc(F)c(Cl)c([C@@]2(CF)N=C(N)O[C@@H]3C[C@@H]32)c1` [Example 138, N-(3-((1R,5S,6R)-3-amino-5-(fluoromethyl)-2-oxa-4-azabicyclo[4.1.0]hept-3-en-5-yl)-4-chloro-5-fluorophenyl)-5-cyano-3-methylpicolinamide], the values for the IC50 (on Cathepsin D (Cat D); in experiment [1]; on BACE) were 662 µM, 0.0362 µM and 0.0151 µM, respectively.

For the molecule `COc1cnc(C(=O)Nc2cc(F)c(F)c([C@@]3(CF)N=C(N)O[C@@H]4C[C@@H]43)c2)cn1` [Example 143, N-(3-((1R,5S,6R)-3-amino-5-(fluoromethyl)-2-oxa-4-azabicyclo[4.1.0]hept-3-en-5-yl)-4,5-difluorophenyl)-5-methoxypyrazine-2-carboxamide], the IC50 was 529 µM on Cathepsin D (Cat D), 0.125 µM in experiment [1] and 0.0221 µM at BACE.

`COc1cnc(C(=O)Nc2cc(F)c(F)c([C@]3(CF)N=C(N)O[C@H]4C[C@H]43)c2)cn1` [Example 144, N-(3-((1S,5R,6S)-3-amino-5-(fluoromethyl)-2-oxa-4-azabicyclo[4.1.0]hept-3-en-5-yl)-4,5-difluorophenyl)-5-methoxypyrazine-2-carboxamide]: the IC50 on Cathepsin D (Cat D) was 1340 µM; in experiment [1], above 40 µM; against BACE, 4.62 µM.

`CC(C)Oc1cnc(C(=O)Nc2ccc(F)c([C@@]3(C(F)F)N=C(N)O[C@@H]4C[C@@H]43)c2)cn1` [Example 147, N-(3-((1R,5S,6R)-3-amino-5-(difluoromethyl)-2-oxa-4-azabicyclo[4.1.0]hept-3-en-5-yl)-4-fluorophenyl)-5-isopropoxypyrazine-2-carboxamide]: the IC50 at Cathepsin D (Cat D) amounted to 706 µM; in experiment [1], 0.732 µM; against BACE, 1 µM.

On to `NC1=N[C@@](c2cc(NC(=O)c3csc(C(F)F)n3)ccc2F)(C(F)F)[C@H]2C[C@H]2O1` [Example 149, N-(3-((1R,5S,6R)-3-amino-5-(difluoromethyl)-2-oxa-4-azabicyclo[4.1.0]hept-3-en-5-yl)-4-fluorophenyl)-2-(difluoromethyl)thiazole-4-carboxamide], for which the IC50 on Cathepsin D (Cat D) was found to be 1700 µM; in experiment [1], 0.195 µM; on BACE it was 0.152 µM.

Consider `NC1=N[C@@](c2cc(NC(=O)c3coc(C(F)F)n3)ccc2F)(C(F)F)[C@H]2C[C@H]2O1` [Example 150, N-(3-((1R,5S,6R)-3-amino-5-(difluoromethyl)-2-oxa-4-azabicyclo[4.1.0]hept-3-en-5-yl)-4-fluorophenyl)-2-(difluoromethyl)oxazole-4-carboxamide 2,2,2-trifluoroacetate], for which the figures for the IC50 (at Cathepsin D (Cat D); in experiment [1]; on BACE) were 238 µM, 0.0322 µM and 0.0182 µM, respectively.

`NC1=N[C@@](c2cc(NC(=O)c3coc(C#CC4CC4)n3)ccc2F)(C(F)F)[C@H]2C[C@H]2O1` [Example 151, N-(3-((1R,5S,6R)-3-amino-5-(difluoromethyl)-2-oxa-4-azabicyclo[4.1.0]hept-3-en-5-yl)-4-fluorophenyl)-2-(cyclopropylethynyl) oxazole-4-carboxamide]: the IC50 on Cathepsin D (Cat D) is 302 µM; in experiment [1], 24.8 µM; against BACE, 1.07 µM.

Turning to `Cn1nc(C(F)F)cc1C(=O)Nc1ccc(F)c([C@@]2(C(F)F)N=C(N)O[C@@H]3C[C@@H]32)c1` [Example 154, N-(3-((1R,5S,6R)-3-amino-5-(difluoromethyl)-2-oxa-4-azabicyclo[4.1.0]hept-3-en-5-yl)-4-fluorophenyl)-3-(difluoromethyl)-1-methyl-1H-pyrazole-5-carboxamide], the IC50 at Cathepsin D (Cat D) turned out to be 515 µM; in experiment [1] it was 0.24 µM; at BACE it was 0.109 µM.

On to `COc1cnc(C(=O)Nc2cc(F)c(Cl)c([C@]3(CF)N=C(N)O[C@H]4C[C@H]43)c2)cn1` [Example 155], for which the IC50 on Cathepsin D (Cat D) was 647 µM; in experiment [1], above 40 µM; against BACE, above 15.6 µM.

Turning to `COc1cnc(C(=O)Nc2cc(F)c(Cl)c([C@@]3(CF)N=C(N)O[C@@H]4C[C@@H]43)c2)cn1` [Example 156, N-(3-((1R,5S,6R)-3-amino-5-(fluoromethyl)-2-oxa-4-azabicyclo[4.1.0]hept-3-en-5-yl)-4-chloro-5-fluorophenyl)-5-methoxypyrazine-2-carboxamide], the figures for the IC50 (at Cathepsin D (Cat D); in experiment [1]; on BACE) were 897 µM, 0.055 µM and 0.0199 µM, respectively.

The record behind these values is patent US9085576B2 (AMGEN INC., priority 2013, dated 2015).
